Results published in the supplement of paper PMC10307832.

What was measured:
Assay in all cases: relative viability (nuclei count vs DMSO), 5 days (fraction); higher = more cells survive
[1] = compound: CN1CCN(CC1)C2=CC(=C(C=C2)NC3=NC(=C(S3)C(=O)C4=C(C=CC=C4Cl)Cl)N)OC [XMD14-99] + COc1cc2c(Oc3ccc(NC(=O)C4(C(=O)Nc5ccc(F)cc5)CC4)cc3F)ccnc2cc1OCCCN1CCOCC1 [Foretinib] (partner 0.25 µM)
Summary of the method: (§1)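 Each reported value is a median over duplicate plates. It expresses relative viability: treated-well nuclei count divided by vehicle-well nuclei count. Lung cancer cell lines in 1536-well plates were dosed by pin tool a day after seeding, alone with one drug or with a fixed anchor-drug dose plus five library-drug doses (not always all listed) in √10 steps, and nuclei were counted after 5 days.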

[2] = compound: CN1CCN(CC1)C2=CC(=C(C=C2)NC3=NC(=C(S3)C(=O)C4=C(C=CC=C4Cl)Cl)N)OC [XMD14-99] + CS(=O)(=O)CCNCc1ccc(-c2ccc3ncnc(Nc4ccc(OCc5cccc(F)c5)c(Cl)c4)c3c2)o1 [Lapatinib] (partner 2 µM)
Summary of the method: as §1

[3] = compound: N[C@@H]1CCCN(c2c(/C=C3\SC(=O)NC3=O)cccc2-c2ccccc2)C1 [AZD1208] + COc1cccc2cc(-c3nc([C@H]4CC[C@H](C(=O)O)CC4)n4ncnc(N)c34)[nH]c12 [OSI-027] (partner 0.5 µM)
Summary of the method: as §1

[4] = compound: N[C@@H]1CCCN(c2c(/C=C3\SC(=O)NC3=O)cccc2-c2ccccc2)C1 [AZD1208] + O=C(c1cc(Cc2n[nH]c(=O)c3ccccc23)ccc1F)N1CCN(C(=O)C2CC2)CC1 [Olaparib] (partner 8 µM)
Summary of the method: as §1

Cell Line | relative viability ([1]; first compound 0.08 µM) | relative viability ([1]; first compound 0.8 µM) | relative viability ([1]; first compound 2.53 µM) | relative viability ([1]; first compound 8 µM) | relative viability ([2]; first compound 0.08 µM) | relative viability ([2]; first compound 0.8 µM) | relative viability ([2]; first compound 2.53 µM) | relative viability ([2]; first compound 8 µM) | relative viability ([3]; first compound 0.08 µM) | relative viability ([3]; first compound 0.253 µM) | relative viability ([3]; first compound 0.8 µM) | relative viability ([3]; first compound 2.53 µM) | relative viability ([3]; first compound 8 µM) | relative viability ([4]; first compound 0.08 µM) | relative viability ([4]; first compound 0.253 µM) | relative viability ([4]; first compound 0.8 µM) | relative viability ([4]; first compound 2.53 µM) | relative viability ([4]; first compound 8 µM)
NCI-H727 | 0.95 | 0.893 | 0.684 | 0.555 | 0.791 | 0.935 | 0.721 | 0.484 | 0.576 | 0.561 | 0.414 | 0.468 | 0.548 | 0.793 | 0.556 | 0.917 | 0.743 | 0.734
NCI-H838 | 1.01 | 0.943 | 0.926 | 0.887 | 0.947 | 0.993 | 0.851 | 0.69 | 0.378 | 0.453 | 0.38 | 0.326 | 0.301 | 0.789 | 0.796 | 0.72 | 0.759 | 0.753
NCI-H1355 | 0.994 | 0.913 | 0.808 | 0.706 | 1.03 | 0.958 | 1.01 | 0.61 | 0.389 | 0.31 | 0.315 | 0.285 | 0.273 | 0.717 | 0.689 | 0.672 | 0.68 | 0.657
NCI-H1395 | 0.986 | 0.965 | 0.998 | 0.901 | 0.985 | 0.958 | 1.04 | 0.809 | 0.624 | 0.569 | 0.578 | 0.624 | 0.491 | 0.479 | 0.432 | 0.406 | 0.421 | 0.381
NCI-H1437 | 1.25 | 1.05 | 1.06 | 0.891 | 0.804 | 0.745 | 0.573 | 0.458 | 0.821 | 1.07 | 0.837 | 0.774 | 0.764 | 0.651 | 0.648 | 0.606 | 0.673 | 0.676
NCI-H1650 | 1.14 | 1.27 | 1.13 | 0.941 | 0.702 | 1.03 | 0.725 | 0.619 | 0.592 | 0.516 | 0.568 | 0.434 | 0.473 | 0.712 | 0.787 | 0.839 | 0.856 | 0.796
NCI-H1651 | 0.811 | 0.706 | 0.866 | 0.694 | 0.779 | 0.823 | 0.79 | 0.705 | 0.679 | 0.878 | 0.534 | 0.595 | 0.503 | 0.198 | 0.186 |  | 0.172 | 0.172
NCI-H1666 | 1.02 | 0.859 | 0.866 | 0.712 | 0.741 | 0.582 | 0.721 | 0.399 | 0.779 | 0.829 | 0.682 | 0.826 | 0.775 | 0.762 | 0.766 | 0.673 | 0.693 | 0.768
NCI-H1734 | 0.821 | 0.826 | 0.793 | 0.7 | 1.01 | 0.997 | 1.05 | 0.825 | 0.51 | 0.534 | 0.495 | 0.468 | 0.342 | 0.679 | 0.575 | 0.554 | 0.544 | 0.449
